# Test results as given in patent US11607396B2, “Bicyclic amide compounds and methods of use thereof” (Genentech, Inc., priority 2016, dated 2023).
# Target: human RIP1 kinase domain (2-375) (Homo sapiens (Human), UniProt Q13546)
# Test: RIP1 kinase inhibition biochemical assay (Transcreener ADP, fluorescence polarization)
# Conditions: apparent Ki (Kiapp, Morrison tight-binding fit); 50 nM enzyme, 50 uM ATP, 2 hours incubation
# Experimental: RIP1 Kinase Inhibition Assays (Biochemical Assay):
# The compounds of the present invention were tested for their capacity to inhibit RIP IK activity as described below.
# Enzyme assay: The ability of the receptor interacting protein kinase (RIPK1) to catalyze the hydrolysis of adenosine-5′-triphosphate (ATP) is monitored using the Transcreener ADP (adenosine-5′-diphosphate) assay (BellBrook Labs). Purified human RIP1 kinase domain (2-375) (50 nM) derived from a baculovirus-infected insect cell expression system is incubated with test compounds for 2 hours in 50 mM Hepes buffer (pH 7.5) containing 30 mM MgCl2, 1 mM dithiothreitol, 50 uM ATP, 0.002% Brij-35, and 0.5% dimethyl sulfoxide (DMSO). Reactions are quenched by the addition of IX Bell Brooks Stop buffer B (20 mM Hepes (ph7.5), 40 mM ethylenediaminetetraacetic acid and 0.02% Brij-35) containing an additional 12 mM EDTA and 55 ug/mL ADP2 antibody and 4 nM ADP-AlexaFluor® 633 tracer. The tracer bound to the antibody is displaced by the ADP generated during the RIP IK reaction, which causes a decrease in fluorescence polarization that is measured by laser excitation at 633 nm with a FP microplate reader M1000. Fractional activity was plotted against test article concentration. […]
# Chain of human RIP1 kinase domain (2-375) (Q13546 2-375): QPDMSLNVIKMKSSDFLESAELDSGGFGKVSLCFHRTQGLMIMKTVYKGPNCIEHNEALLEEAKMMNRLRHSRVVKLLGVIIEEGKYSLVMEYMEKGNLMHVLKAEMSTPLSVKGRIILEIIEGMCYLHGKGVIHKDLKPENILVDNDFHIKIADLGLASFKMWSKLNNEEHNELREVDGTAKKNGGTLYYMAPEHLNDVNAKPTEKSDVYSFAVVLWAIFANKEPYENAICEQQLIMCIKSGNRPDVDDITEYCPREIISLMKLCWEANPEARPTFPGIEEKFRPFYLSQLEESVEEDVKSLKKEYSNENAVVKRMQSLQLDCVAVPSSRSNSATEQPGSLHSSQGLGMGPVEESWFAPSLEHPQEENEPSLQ
row,Compound,Ki [nM]
1,"O=C(c1nc2n(n1)CCC2c1ccccc1F)N1CC(F)(F)C1 (racemic) [Example 14, (3,3-difluoroazetidin-1-yl)-[7-(2-fluorophenyl)-6,7-dihydro-5H-pyrrolo[1,2-b][1,2,4]triazol-2-yl]methanone]",233
2,"O=C(c1nc2n(n1)[C@H](c1ccccc1)C[C@@H]2F)N1CC(F)(F)C1 (single isomer, unassigned) [Example 36]",4
